From paper PMC4022547 (Molecular Brain, 2014) come the findings set out here.

Test [1] has as its target hα6(N46K) + codon optimized hβ2 + hβ3^V9’S nAChR (Homo sapiens, UniProt P17787+Q15825, N46K). As to conditions: 100 μM nicotine; oocytes clamped at −70 mV. As for the experimental part: (§1) We planned to introduce identical amounts of cRNA, presumably producing equal amounts of each subunit protein, into oocytes largely due to lack of information about the levels of mRNA for each subunits that compose α6*-nAChRs in neurons or other cells. Concentrations of cRNAs for each nAChR α and β subunits (WT, mutant or variant) were adjusted to 500 ng μL^−1. We provisionally assumed that hα6 or its variants in association with hβ2 or hβ4 subunits would form complexes having 2:3 and/or 3:2 ratios of the indicated subunits and that oocytes also injected with WT or mutant form of β3 subunits (i.e., β3^V9’S) would express nAChR with 2:2:1 ratios of α:β:(β3 or β3^V9’S) subunits. For expression of binary nAChRs (i.e., two subunit containing nAChRs; α + β but not β3) cRNA mixtures were prepared by mixing 1 μL of cRNA for each subunit and an additional μL of RNAse free water (i.e., total volume 3 μL). Similarly for expression of ternary nAChRs [i.e., three subunit containing nAChRs; (α + β) + (β3 or β3^V9’S)] cRNA mixtures were prepared by mixing 1 μL of cRNA for each subunit. Several preparations of each mixture were prepared and stored at −80°C until further use. Injection of 138 nL of cRNA, out of 3 μL cRNA mixtures, into each oocyte would deliver ~23 ng of cRNA for each subunit whether binary or ternary nAChRs are expressed.
(§2) Two to 5 days after injection, oocytes were placed in a small-volume chamber and continuously perfused with OR2. The chamber was grounded through an agarose bridge. The oocytes were voltage-clamped at −70 mV (unless otherwise noted) to measure agonist or antagonist induced currents using Axoclamp 900A and pClamp 10.2 software (Molecular Devices, Sunnyvale, CA). The current signal was low-pass filtered at 10 Hz with the built-in low-pass Bessel filter in the Axoclamp 900A and digitized at 20 Hz with Axon Digidata1440A and pClamp10. […] Drugs (agonists and antagonists) were prepared daily in OR2. Drug was applied using a Valvelink 8.2 perfusion system (Automate scientific, Berkeley, CA). […] Then for the purpose of comparison electrophysiological recordings were performed in a given day in a given batch of oocytes following the same order of injections. […] All hβ4*-nAChR recordings were done in similar conditions to facilitate comparisons between hα6hβ4- and hα6hβ4hβ3-nAChRs. All electrophysiological measurements were conducted or checked in at least two batches of oocytes.
(§3) Raw data was collected and processed in part using pClamp 10.2 (Molecular Devices, Sunnyvale, CA), Origin 7.5 (OriginLab Corporation, Northampton, MA) and a spreadsheet (Excel; Microsoft, Bellevue, WA). Peak current amplitudes (Imax) are reported as mean ± SEM (for results from at least three oocytes, i.e., n = 3).

The target in test [2] is hα6(D92E) + codon optimized hβ2 + hβ3^V9’S nAChR (Homo sapiens, UniProt P17787+Q15825, D92E). To be noted: 100 μM nicotine; oocytes clamped at −70 mV. As for the experimental part:
as §1, §2, §3

The target of test [3] is hα6(S233C) + codon optimized hβ2 + hβ3^V9’S nAChR (Homo sapiens, UniProt P17787+Q15825, S233C). To be noted: 100 μM nicotine; oocytes clamped at −70 mV. The protocol:
as §1, §2, §3

The target in test [4] is hα6(S43P) + hβ4 + hβ3 nAChR (Homo sapiens, UniProt P30926+Q15825, S43P). As to conditions: 100 μM nicotine; oocytes clamped at −70 mV. The protocol: as §1, §2, §3
For test [5], the target named is hα6(A112V) + WT hβ2 + hβ3^V9’S nAChR (Homo sapiens, UniProt P17787+Q15825, A112V). As to conditions: 100 μM nicotine; 3 days after cRNA injection. The protocol: as §1, §2, §3
hα6(A112V) + WT hβ2 + hβ3^V9’S nAChR, sequence (Q15825 26-494 A112V): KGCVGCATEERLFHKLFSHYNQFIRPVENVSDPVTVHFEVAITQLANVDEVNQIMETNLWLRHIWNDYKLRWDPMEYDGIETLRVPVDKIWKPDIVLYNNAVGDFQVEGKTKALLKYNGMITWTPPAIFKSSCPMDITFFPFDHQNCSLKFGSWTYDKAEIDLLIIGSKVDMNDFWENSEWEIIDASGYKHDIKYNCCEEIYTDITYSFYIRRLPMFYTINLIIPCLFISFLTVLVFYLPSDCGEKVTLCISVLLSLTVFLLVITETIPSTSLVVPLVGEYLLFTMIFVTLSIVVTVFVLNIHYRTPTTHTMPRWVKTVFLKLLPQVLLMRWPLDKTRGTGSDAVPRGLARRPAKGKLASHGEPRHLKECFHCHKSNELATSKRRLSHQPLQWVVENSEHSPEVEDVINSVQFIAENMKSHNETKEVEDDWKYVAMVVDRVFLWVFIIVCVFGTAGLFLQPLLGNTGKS
hα6(A112V) + WT hβ2 + hβ3^V9’S nAChR, sequence (P17787 26-502): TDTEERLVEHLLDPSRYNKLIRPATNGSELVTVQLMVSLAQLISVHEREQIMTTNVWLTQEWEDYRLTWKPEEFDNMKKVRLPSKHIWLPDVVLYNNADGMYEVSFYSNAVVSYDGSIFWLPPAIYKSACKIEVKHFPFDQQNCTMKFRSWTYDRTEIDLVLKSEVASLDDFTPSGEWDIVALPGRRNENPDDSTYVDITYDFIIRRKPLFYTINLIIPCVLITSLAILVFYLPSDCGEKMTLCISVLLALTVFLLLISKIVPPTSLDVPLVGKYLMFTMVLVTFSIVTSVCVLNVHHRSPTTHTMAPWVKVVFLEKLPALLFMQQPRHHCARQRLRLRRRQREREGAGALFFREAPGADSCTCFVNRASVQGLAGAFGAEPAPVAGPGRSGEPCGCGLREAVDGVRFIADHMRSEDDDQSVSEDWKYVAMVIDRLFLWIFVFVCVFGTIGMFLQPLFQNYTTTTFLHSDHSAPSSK
hα6(A112V) + WT hβ2 + hβ3^V9’S nAChR, sequence (Q05901 25-458 V273S partner limits assumed): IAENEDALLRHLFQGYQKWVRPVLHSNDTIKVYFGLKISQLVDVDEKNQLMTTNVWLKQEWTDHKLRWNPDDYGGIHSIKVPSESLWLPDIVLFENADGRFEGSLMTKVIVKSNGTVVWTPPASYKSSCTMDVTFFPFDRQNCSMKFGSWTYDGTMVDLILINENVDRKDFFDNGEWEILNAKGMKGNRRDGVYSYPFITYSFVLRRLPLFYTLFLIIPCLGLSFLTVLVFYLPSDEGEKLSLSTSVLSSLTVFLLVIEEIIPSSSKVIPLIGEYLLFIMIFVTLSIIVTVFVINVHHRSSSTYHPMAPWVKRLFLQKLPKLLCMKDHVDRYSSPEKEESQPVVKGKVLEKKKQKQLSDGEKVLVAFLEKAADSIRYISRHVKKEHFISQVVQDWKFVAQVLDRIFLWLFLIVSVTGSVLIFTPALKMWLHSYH
Test [6] concerns the target hα6(R87C) + hβ4 + hβ3 nAChR (Homo sapiens, UniProt P30926+Q15825, R87C). To be noted: nicotine. The protocol:
as §1, §2, §3

Test [7] concerns the target hα6(D57N) + WT hβ2 + hβ3^V9’S nAChR (Homo sapiens, UniProt P17787+Q15825, D57N). To be noted: nicotine. The protocol: as §1, §2, §3
In test [8] the target is hα6(S43P) + WT hβ2 + hβ3^V9’S nAChR (Homo sapiens, UniProt P17787+Q15825, S43P). As to conditions: nicotine. The protocol: as §1, §2, §3
Test [9] concerns the target hα6(D57N) + hβ4 + hβ3 nAChR (Homo sapiens, UniProt P30926+Q15825, D57N). To be noted: nicotine. As for the experimental part:
as §1, §2, §3

In test [10] the target is hα6(I226T) + codon optimized hβ2 + hβ3^V9’S nAChR (Homo sapiens, UniProt P17787+Q15825, I226T). To be noted: 100 μM nicotine; oocytes clamped at −70 mV. The protocol:
as §1, §2, §3

Test [11] concerns the target hα6(E101K) + codon optimized hβ2 + hβ3^V9’S nAChR (Homo sapiens, UniProt P17787+Q15825, E101K). As to conditions: 100 μM nicotine; oocytes clamped at −70 mV. The protocol:
as §1, §2, §3

For test [12], the target named is hα6(E101K) + hβ4 + hβ3 nAChR (Homo sapiens, UniProt P30926+Q15825, E101K). As to conditions: 100 μM nicotine; oocytes clamped at −70 mV. As for the experimental part: as §1, §2, §3
hα6(E101K) + hβ4 + hβ3 nAChR, sequence (Q15825 26-494 E101K): as the sequence (Q15825 26-494 A112V) above, with E76K, V87A counted along it
hα6(E101K) + hβ4 + hβ3 nAChR, sequence (P30926 22-498): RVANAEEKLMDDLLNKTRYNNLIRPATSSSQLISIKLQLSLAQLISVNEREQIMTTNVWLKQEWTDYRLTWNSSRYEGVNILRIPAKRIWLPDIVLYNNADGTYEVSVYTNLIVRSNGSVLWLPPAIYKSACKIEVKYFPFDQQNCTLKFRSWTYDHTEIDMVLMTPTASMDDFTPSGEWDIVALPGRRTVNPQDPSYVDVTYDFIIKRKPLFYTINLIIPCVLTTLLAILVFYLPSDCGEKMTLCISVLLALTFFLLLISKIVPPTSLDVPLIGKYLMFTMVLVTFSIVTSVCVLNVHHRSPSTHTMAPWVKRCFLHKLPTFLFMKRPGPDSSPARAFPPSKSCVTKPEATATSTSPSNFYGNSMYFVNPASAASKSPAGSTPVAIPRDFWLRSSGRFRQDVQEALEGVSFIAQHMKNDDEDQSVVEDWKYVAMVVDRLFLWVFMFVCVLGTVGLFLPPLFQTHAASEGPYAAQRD
hα6(E101K) + hβ4 + hβ3 nAChR, sequence (Q05901 25-458 partner limits assumed): as the sequence (Q05901 25-458 V273S partner limits assumed) above, with S249V counted along it
A further test deals with hα6(N46K) + hβ4 nAChR (Homo sapiens, UniProt P30926+Q15825, N46K). To be noted: 100 μM nicotine; oocytes clamped at −70 mV. The protocol:
as §1, §2, §3

Test [13] deals with hα6(A184D) + WT hβ2 + hβ3^V9’S nAChR (Homo sapiens, UniProt P17787+Q15825, A184D). To be noted: 100 μM nicotine; 3 days after cRNA injection. As for the experimental part:
as §1, §2, §3

Test [14] deals with hα6(A112V) + codon optimized hβ2 + hβ3^V9’S nAChR (Homo sapiens, UniProt P17787+Q15825, A112V). To be noted: 100 μM nicotine; oocytes clamped at −70 mV. The protocol: as §1, §2, §3

SMILES strings stand for the structures.

hα6(E101K) + codon optimized hβ2 + hβ3^V9’S nAChR, sequence (Q15825 26-494 E101K): as the sequence (Q15825 26-494 A112V) above, with E76K, V87A counted along it
hα6(E101K) + codon optimized hβ2 + hβ3^V9’S nAChR, sequence (P17787 26-502): as the sequence (P17787 26-502) above
hα6(E101K) + codon optimized hβ2 + hβ3^V9’S nAChR, sequence (Q05901 25-458 V273S partner limits assumed): as the sequence (Q05901 25-458 V273S partner limits assumed) above

On to `CN1CCC[C@H]1c1cccnc1` [nicotine, L-nicotine], for which the “peak current (Imax, mean ± SE)” value in [1] turned out to be 118 ± 33 nA; in [2], 66 ± 20 nA; in test [3], 1582 ± 221 nA; in test [10], 753 ± 137 nA; in test [11] it was 551 ± 156 nA; on hα6(N46K) + hβ4 nAChR, 78 ± 11 nA. In addition, the “peak current (Imax, mean ± SE)” value in [14] came out at 293 ± 24 nA. In addition, the “Mean (±SE) peak current response” value in [4] is reported as 208 ± 22 nA; in test [12] it was 467 ± 54 nA. Further, the peak current response in test [5] and in test [13] was 15-30 nA throughout. The current response result is listed as “did not elicit current responses” in [6], “did not yield current responses” in test [7], “did not yield current responses” in test [8] and “did not elicit current responses” in test [9].
